Measured values as given in paper PMC6482174, “Fragment-based screening identifies inhibitors of ATPase activity and of hexamer formation of Cagα from the Helicobacter pylori type IV secretion system” (Scientific Reports, 2019).

Tests used:
Cagα ATPase activity = Cagα ATPase activity (Helicobacter pylori, UniProt G5EB02); assay: Malachite green ATPase activity assay; format: biochemical; conditions: for Mechanism of inhibition: inhibitor 0 to 500 μM, ATP varied, only Vmax affected, Km constant
Procedure: We used a Malachite green assay to measure the release of inorganic phosphate from ATP to assess whether the 16 binding fragments impact the enzymatic activity of Cagα. […] Therefore, the mechanism of inhibition by molecules 1G2 and 1G2#4 is non-competitive.
The ATPase activity was quantified using a malachite green binding assay. The 100 μL reaction mixtures contained 25 mM HEPES (pH 7.5), 100 mM NaCl, 60 nM of enzyme and 200 µM of MgCl2 with different concentrations of ATP (0 µM–320 µM) to determine kinetic parameters. The reaction mixtures were incubated for 30 min at 30 °C and then 40 μL of malachite green assay mixture was added. The formation of the blue phosphomolybdate-malachite green complex was in linear relation to the amount of released inorganic phosphate and measured at 610 nm. To study the mechanism of inhibition, the concentrations of inhibitors were varied between 0 and 500 μM with different concentrations of ATP (0–40 μM). Initial velocity data were fit using nonlinear regression analysis to each of the equations describing partial and full models of competitive, uncompetitive, non-competitive, and mixed inhibition using the Enzyme Kinetics Module of SigmaPlot (SigmaPlot version 11.0 software). On the basis of the analysis of fits through “goodness-of-fit” statistics, the full non-competitive inhibition model was determined with the equation ν = Vmax/[(1 + [I]/Ki) × (1 + Km/[S])], where [S] = [ATP], [I] = [1G2].
IC50 values were determined by incubating different concentrations of molecules (10–1,000 µM; from stocks of 200 mM) with enzyme in 25 mM HEPES (pH 7.5) and 100 mM NaCl. Mixtures were incubated with inhibitors for 15 min, followed by addition of ATP and incubation for 30 min at 37 °C. The reactions were stopped by addition of 40 µl malachite green solution and the inorganic phosphate released was determined at 610 nm. Data were plotted as 1/rate versus inhibitor concentration for each substrate concentration and a linear fit was calculated by non-linear regression using SigmaPlot (version 11.0).

[1] = system: IL-8 production by AGS cells upon co-cultivation with H. pylori; assay: IL-8 induction in AGS cells co-cultivated with H. pylori (ELISA); format: cell-based, Helicobacter pylori; conditions: 200 μM
Description: (§1) Finally, we assessed whether molecule 1G2 or its derivates impact the functionality of the T4SS in vivo. To this effect, we tested their impact on the interaction of H. pylori strain 26695 with gastric adenocarcinoma (AGS) cells. […] We then tested the effects of these molecules in two commonly used assays for downstream effects of T4SS function: IL-8 production and CagA phosphorylation. […] In contrast, derivates 1G2#1 to #6 have no effect on IL-8 production. Similarly, none of the molecules reduces the tyrosine phosphorylation of the T4SS-translocated virulence factor CagA, which is generally used as an alternative assay to measure T4SS function (Supplementary Fig. 8). […] This observation may be due to partial inhibition of T4SS function by 1G2 that is more readily quantifiable in the IL-8 production assay as compared to the CagA phosphorylation assay.
Figure 6 Molecule 1G2 decreases IL-8 induction in co-cultivated AGS cells. H. pylori 26695 without and after pre-incubation with 1G2 and its derivatives for […]. AGS cells were then co-cultured with H. pylori overnight and IL-8 induction was measured by ELISA. The induction of IL-8 by the wild type was calculated as 100% (WT), induction of IL-8 by the ΔcagV strain was used as negative control. The data represent the results from three experiments. […]

[2] = system: tyrosine phosphorylation of the T4SS-translocated virulence factor CagA; assay: CagA transfer into AGS cells / CagA tyrosine phosphorylation (western blot); format: cell-based, Helicobacter pylori; conditions: H. pylori pre-incubated with molecule, AGS infection
Description: as §1
Preceding the infection, an overnight culture of H. pylori was pre-incubated with 1G2 and its derivates for 30 min. AGS cells at 6 × 10^5 cells/well density in 6-well plates were infected with the pre-treated cultures of H. pylori for 3–6 h at a multiplicity of infection of 100:1. […]
Western blot analyses were reproduced four times and intensities of the CagAPY signals were quantified (Image Lab TM Software) and normalized using anti -b-actin signals. […]

H. pylori 26695 = assay: H. pylori growth on solid agar media (Whatman paper disks); format: cell-based, Helicobacter pylori; conditions: 72 h
Description: as §1
AGS cell viability was monitored using Cell Proliferation Reagent WST-1 (Sigma). To evaluate the sensitivity of H. pylori to 1G2 and its derivates, freshly harvested bacteria were spread on a 150-mm agar plate. Increasing concentrations of compounds (50–500 μM) were spotted onto Whatman paper disks and growth was observed after 72 h incubation at 37 °C under microaerophilic conditions and compared to antibiotics (50–250 μM).
Supplementary Figure 6. Effects of molecule 1G2 and its derivates on H. pylori growth. […]

Cagα ATPase activity, sequence (G5EB02 entry or part of it): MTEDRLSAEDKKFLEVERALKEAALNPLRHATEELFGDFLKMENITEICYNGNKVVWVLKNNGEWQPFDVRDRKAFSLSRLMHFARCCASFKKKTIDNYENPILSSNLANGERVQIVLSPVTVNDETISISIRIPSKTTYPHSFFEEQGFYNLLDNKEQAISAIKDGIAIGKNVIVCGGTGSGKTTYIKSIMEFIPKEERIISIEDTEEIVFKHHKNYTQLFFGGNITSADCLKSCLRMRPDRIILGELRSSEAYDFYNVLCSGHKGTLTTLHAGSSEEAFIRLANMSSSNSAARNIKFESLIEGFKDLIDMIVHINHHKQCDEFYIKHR

Structure (SMILES) | IC50 (Cagα ATPase activity) [µM] | Mechanism of inhibition (Cagα ATPase activity) | Effect on IL-8 production (in words) [1] | Effect on tyrosine phosphorylation of CagA [2] | Effect on growth of H. pylori on solid agar media (H. pylori 26695; concentrations up to 500 μM) | IL-8 production, of the control ([1]; wild type without molecule = 100%) | Effect on growth of H. pylori (control antibiotic) (H. pylori 26695; several concentrations on Whatman paper disks)
Cc1ccc(Oc2ccc(C(=O)O)cc2)nc1 [1G2#4] | 81.9 | non-competitive | no effect | no effect |  |  | 
O=C(O)c1ccc(Oc2ccccn2)cc1 [1G2] | 196 | non-competitive |  | did not observe an effect | no negative effect | about 50% | 
O=C(N[C@H](CO)[C@H](O)c1ccc([N+](=O)[O-])cc1)C(Cl)Cl [chloramphenicol, reference compound] |  |  |  |  |  |  | inhibition of growth
